Columns and labels:
Assay type in all cases: in vivo
[1] = tested on: velvetleaf (Abutilon theophrasti Medik.) (VL); assay: Preemergence herbicide test, soil drench, velvetleaf; settings: Abutilon theophrasti, 336 h, 10 lbs/A (11.2 kg/ha) soil drench, two weeks after treatment, vs untreated checks, read-out: Percent Weed Control VL
Procedure, shortened: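 Compound in acetone/ethoxylated sorbitan monolaurate, diluted to 250 ppm in water, was drenched onto the soil surface of pots sown with velvetleaf at 10 lb/acre (11.2 kg/ha). Percent control versus untreated checks was rated two weeks after treatment.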

[2] = tested on: prickly sida (Sida spinosa L.) (PS); assay: Postemergence herbicide test, foliar spray, prickly sida; settings: 3000 ppm foliar spray to drip point, treated six days after emergence, two weeks after treatment
Description: To illustrate the effectiveness of the previously described substituted oxadiazines of this invention as preemergence herbicides, 300 mg of the chemical was dissolved in a composition comprising 10 mL acetone to which 30 mg of tile emulsifying agent, ethoxylated sorbitan monolaurate, was added. The solution was diluted to 100 mL with distilled water. Ten milliliters of this 3000 ppm solution was diluted to 250 ppm with distilled water. The chemical was applied at the rate of 10 pounds/acre (11.2 kg/ha) by drenchings 46 mL of the 250 ppm solution on the surface of soil in 41⁄2 inch (11.25 cm) plastic pots wherein seeds of the following weeds had been planted: prickly […] spinosa L.) (PS), To illustrate the effectiveness of the described substituted oxadiazines as postemergence herbicides, the 3000 ppm solution described under Example 5 was atomized with a conventional DeVilbissTM sprayer, wetting the foliage to the drip point. The weeds, which were the same species as described in Example 5, were treated six days after emergence. The percent weed control was evaluated two weeks after treatment.

[3] = tested on: tall morningglory (Ipomoea purpurea (L.) Roth) (TM); assay: Preemergence herbicide test, soil drench, tall morningglory; settings: Ipomoea, 336 h, 10 lbs/A (11.2 kg/ha) soil drench, two weeks after treatment, vs untreated checks, read-out: Percent Weed Control TM
Procedure, shortened: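 Acetone/emulsifier formulation diluted to 250 ppm and drenched onto soil surface of seeded pots at 10 lb/acre (11.2 kg/ha), preemergence. Percent weed control versus untreated checks scored two weeks after treatment.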

[4] = tested on: green foxtail (Setaria virdis (L.) Beauv.) (GF); assay: Preemergence herbicide test, soil drench, green foxtail; settings: Setaria, 336 h, 10 lbs/A (11.2 kg/ha) soil drench, two weeks after treatment, vs untreated checks, read-out: Percent Weed Control GF
Procedure, shortened: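 Compound in acetone/water with ethoxylated sorbitan monolaurate emulsifier, applied as 250 ppm soil drench at 10 lb/acre (11.2 kg/ha) to pots sown with green foxtail seed. Percent weed control versus untreated checks rated two weeks after treatment.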

[5] = tested on: barnyardgrass (Echinochloa crus-galli (L.) Beauv.) (BG); assay: Preemergence herbicide test, soil drench, barnyardgrass; settings: Echinochloa crus-galli, 336 h, 10 lbs/A (11.2 kg/ha) soil drench, two weeks after treatment, vs untreated checks, read-out: Percent Weed Control BG
Procedure, shortened: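 Compound formulated in acetone with ethoxylated sorbitan monolaurate, diluted to 250 ppm and drenched onto soil surface of seeded pots at 10 pounds/acre (11.2 kg/ha), preemergence. Percent weed control versus untreated checks scored two weeks after treatment.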

[6] = tested on: switchgrass (Panicum virgahim L.) (SG); assay: Preemergence herbicide test, soil drench, switchgrass; settings: Panicum, 336 h, 10 lbs/A (11.2 kg/ha) soil drench, two weeks after treatment, vs untreated checks, read-out: Percent Weed Control SG
Procedure, shortened: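 Preemergence soil drench at 10 pounds/acre (11.2 kg/ha), 46 mL of 250 ppm aqueous solution (acetone, ethoxylated sorbitan monolaurate) applied to pots sown with switchgrass seed. Percent weed control versus untreated checks scored two weeks after treatment.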

Structure (SMILES) | pest or weed control at 11208.5 g/ha [1] | Percent Weed Control PS [2] | pest or weed control at 11208.5 g/ha [3] | pest or weed control at 11208.5 g/ha [4] | pest or weed control at 11208.5 g/ha [5] | pest or weed control at 11208.5 g/ha [6]
FC(F)(F)C1=NC(C(F)(F)F)(C(F)(F)F)N=C(c2cccc(Cl)c2)O1 [Compound 4, 2-(3-chlorophenyl)-4,4,6-tris(trifluoromethyl)-4H-1,3,5-oxadiazine] | 100% | 90% | 100% | 100% | 100% | 100%
FC(F)(F)C(F)(F)C1=NC(C(F)(F)F)(C(F)(F)F)N=C(c2cccc(Cl)c2)O1 [Compound 13, 2-(3-chlorophenyl)-6-(pentafluoroethyl)-4,4-bis(trifluoromethyl)-4H-1,3,5-oxadiazine] | 100% | 100% | 100% | 100% | 100% | 100%
Fc1ccc(C2=NC(C(F)(F)F)(C(F)(F)F)N=C(C(F)(F)C(F)(F)F)O2)cc1Cl [Compound 20, 2-(3-chloro-4-fluorophenyl)-6-(pentafluoroethyl)-4,4-bis(trifluoromethyl)-4H-1,3,5-oxadiazine] | 100% | 70% | 100% | 100% | 100% | 100%
FC(F)(F)C(F)(F)C1=NC(C(F)(F)F)(C(F)(F)F)N=C(c2ccc(Cl)cc2)O1 [Compound 24, 2-(4-chlorophenyl)-6-(pentafluoroethyl)-4,4-bis(trifluoromethyl)-4H-1,3,5-oxadiazine] | 100% | 100% | 100% | 100% | 90% | 100%
FC(F)(F)C(F)(F)C1=NC(C(F)(F)F)(C(F)(F)F)N=C(c2ccc(Br)cc2)O1 [Compound 25, 2-(4-bromophenyl)-6-(pentafluoroethyl)-4,4-bis(trifluoromethyl)-4H-1,3,5-oxadiazine] | 100% | 100% | 100% | 100% | 90% | 100%
